Selectivity and Ki data for 14 compounds are collected here from ChEMBL document CHEMBL1132879, “High potent and selective arylpiperazine derivatives as ligands for the 5-HT1A receptor” (Bioorg Med Chem Lett, 2000).

Experiment [1] concerns the target Serotonin 1a (5-HT1a) receptor/Adrenergic receptor alpha-1 (Rattus norvegicus) (UniProt P15823+P23944+P43140+P19327). The experiment in a line: Selectivity for 5-HT1A serotonin over alpha-1-adrenergic receptors. It counts as protein assay.
Experiment [2] has as its target T1, Adrenergic receptor alpha-1 (Rattus norvegicus, UniProt P15823+P23944+P43140).
T1 sequence (P15823 whole entry): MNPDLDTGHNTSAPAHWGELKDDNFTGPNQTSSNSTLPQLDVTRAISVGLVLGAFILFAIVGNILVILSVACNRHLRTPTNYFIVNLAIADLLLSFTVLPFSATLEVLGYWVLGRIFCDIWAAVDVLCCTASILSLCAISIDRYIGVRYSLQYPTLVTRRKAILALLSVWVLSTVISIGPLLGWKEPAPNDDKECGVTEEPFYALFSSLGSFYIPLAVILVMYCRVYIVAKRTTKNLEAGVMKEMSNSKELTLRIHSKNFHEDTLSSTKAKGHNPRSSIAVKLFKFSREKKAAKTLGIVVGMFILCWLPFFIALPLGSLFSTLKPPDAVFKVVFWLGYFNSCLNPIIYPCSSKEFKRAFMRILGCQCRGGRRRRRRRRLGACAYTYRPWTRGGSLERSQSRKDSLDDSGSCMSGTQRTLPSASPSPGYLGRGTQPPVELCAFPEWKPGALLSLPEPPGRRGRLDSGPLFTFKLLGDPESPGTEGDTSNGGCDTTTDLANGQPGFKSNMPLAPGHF
T1 sequence (P23944 whole entry): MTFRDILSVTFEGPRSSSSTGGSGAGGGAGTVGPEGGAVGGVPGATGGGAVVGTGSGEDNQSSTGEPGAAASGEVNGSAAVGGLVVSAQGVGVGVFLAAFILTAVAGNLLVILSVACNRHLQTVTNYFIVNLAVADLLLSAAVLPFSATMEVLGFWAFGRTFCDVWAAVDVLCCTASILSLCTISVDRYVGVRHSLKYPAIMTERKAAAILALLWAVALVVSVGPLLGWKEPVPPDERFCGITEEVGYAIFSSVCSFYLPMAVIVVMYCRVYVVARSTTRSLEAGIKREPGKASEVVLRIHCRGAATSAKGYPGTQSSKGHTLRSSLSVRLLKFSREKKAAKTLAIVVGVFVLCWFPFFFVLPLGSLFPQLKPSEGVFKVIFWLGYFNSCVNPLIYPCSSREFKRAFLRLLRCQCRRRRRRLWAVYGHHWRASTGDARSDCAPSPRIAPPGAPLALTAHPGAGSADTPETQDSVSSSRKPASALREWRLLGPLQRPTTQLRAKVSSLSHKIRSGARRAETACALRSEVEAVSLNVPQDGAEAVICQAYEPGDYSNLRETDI
T1 sequence (P43140 whole entry): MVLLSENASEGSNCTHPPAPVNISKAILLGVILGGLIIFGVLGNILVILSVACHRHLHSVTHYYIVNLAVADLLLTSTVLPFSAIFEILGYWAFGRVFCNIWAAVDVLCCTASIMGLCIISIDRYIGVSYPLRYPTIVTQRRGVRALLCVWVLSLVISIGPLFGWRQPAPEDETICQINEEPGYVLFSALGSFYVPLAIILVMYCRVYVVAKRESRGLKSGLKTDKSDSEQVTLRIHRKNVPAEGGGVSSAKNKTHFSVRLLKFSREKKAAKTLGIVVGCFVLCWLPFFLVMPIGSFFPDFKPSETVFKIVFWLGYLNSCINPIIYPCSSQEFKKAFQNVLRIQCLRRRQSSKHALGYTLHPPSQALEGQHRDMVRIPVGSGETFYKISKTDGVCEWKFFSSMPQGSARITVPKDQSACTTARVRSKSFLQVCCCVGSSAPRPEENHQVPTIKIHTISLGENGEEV
The experiment in a line: Displacement of [3H]prazosin from Alpha-1 adrenergic receptor of rat cortex membranes. It counts as cell membranes, Membrane.

For experiment [3], the target named is T2, 5-hydroxytryptamine receptor 1A (Rattus norvegicus, UniProt P19327).
T2 sequence (P19327 whole entry): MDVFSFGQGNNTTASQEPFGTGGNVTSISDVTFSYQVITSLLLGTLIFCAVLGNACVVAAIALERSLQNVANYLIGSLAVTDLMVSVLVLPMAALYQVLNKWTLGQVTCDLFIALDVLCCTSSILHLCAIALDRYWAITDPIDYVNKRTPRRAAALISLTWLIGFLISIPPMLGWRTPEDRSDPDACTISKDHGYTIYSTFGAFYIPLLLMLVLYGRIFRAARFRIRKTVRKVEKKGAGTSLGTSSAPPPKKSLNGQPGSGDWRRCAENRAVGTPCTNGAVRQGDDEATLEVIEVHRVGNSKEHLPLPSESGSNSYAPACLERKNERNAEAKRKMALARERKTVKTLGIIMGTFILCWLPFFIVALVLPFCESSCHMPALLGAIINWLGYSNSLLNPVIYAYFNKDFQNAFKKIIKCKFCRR
Nature of the experiment: Displacement of [3H]8-OH-DPAT from 5-hydroxytryptamine 1A receptor of rat hippocampus membranes. It counts as cell membranes, Membrane.

Consider `Nn1c(SCCCN2CCN(c3ncccn3)CC2)nc2sccc2c1=O`, for which the Selectivity in experiment [1] worked out at 73. In addition, the Ki came out at 366.31 nM in experiment [2] and 5.06 nM in experiment [3].
The matching figures for `CCOc1ccccc1-c1nnc(SCCCN2CCN(c3ccccc3[N+](=O)[O-])CC2)s1`: 3, 437 nM and 135 nM.
With `Cc1sc2nc(SCCCN3CCN(c4ncccn4)CC3)n(N)c(=O)c2c1C`, the Selectivity in experiment [1] stood at 117. The Ki stood at 434 nM in experiment [2] and 3.72 nM in experiment [3].
On the same counts, the results for `COc1ccccc1N1CCN(CCCSc2nc(N)c3c(C)c(C)sc3n2)CC1` are 4.4, 10.8 nM and 2.45 nM.
The matching figures for `Nn1c(SCCCN2CCN(c3ccccc3[N+](=O)[O-])CC2)nc2sccc2c1=O`: 13, 39.87 nM and 3 nM.
On the same counts, the results for `CCc1cc2c(=O)n(N)c(SCCCN3CCN(c4ccccc4OC)CC3)nc2s1` are 115, 21.96 nM and 0.19 nM.
In turn, `COc1ccccc1N1CCN(CCCSc2nc3sc4c(c3c(=O)n2N)CCC4)CC1` registered a Selectivity in experiment [1] of 28. Moreover, the Ki in experiment [2] was 7.39 nM; in experiment [3], 0.26 nM.
On the same counts, the results for `CCc1cc2c(=O)n(N)c(SCCCN3CCN(c4ncccn4)CC3)nc2s1` are 207, 1946 nM and 9.4 nM.
The matching figures for `CCOc1ccccc1-c1nnc(SCCCN2CCN(c3ccccc3OC)CC2)s1`: 4.6, 31.5 nM and 6.84 nM.
In the case of `COc1ccccc1N1CCN(CCCSc2nc3sc(C)c(C)c3c(=O)n2N)CC1`, the Selectivity in experiment [1] turned out to be 39. The figures for the Ki in experiment [2] and in experiment [3] were 6.26 nM and 0.16 nM, respectively.
On the same counts, the results for `COc1ccccc1N1CCN(CCCSc2nc3sccc3c(=O)n2N)CC1` are 3.8, 2.48 nM and 0.65 nM.
The matching figures for `CCc1cc2c(=O)n(N)c(SCCCN3CCN(c4ccccc4[N+](=O)[O-])CC3)nc2s1`: 20, 194.8 nM and 9.69 nM.
The matching figures for `CCCc1cc2c(=O)n(N)c(SCCCN3CCN(c4ccccc4OC)CC3)nc2s1`: 14, 19.65 nM and 1.4 nM.
Take `Cc1sc2nc(SCCCN3CCN(c4ccccc4[N+](=O)[O-])CC3)n(N)c(=O)c2c1C`: the Selectivity in experiment [1] worked out at 53. Moreover, the Ki in experiment [2] stood at 123 nM; in experiment [3] it was 1.46 nM.
